The record followed here is patent US10703755B2, “Substituted purine derivative” (SUMITOMO DAINIPPON PHARMA CO., LTD., priority 2016, dated 2020).

Molecules are shown by their SMILES.

human TLR7, sequence (Q9NYK1 27-1049): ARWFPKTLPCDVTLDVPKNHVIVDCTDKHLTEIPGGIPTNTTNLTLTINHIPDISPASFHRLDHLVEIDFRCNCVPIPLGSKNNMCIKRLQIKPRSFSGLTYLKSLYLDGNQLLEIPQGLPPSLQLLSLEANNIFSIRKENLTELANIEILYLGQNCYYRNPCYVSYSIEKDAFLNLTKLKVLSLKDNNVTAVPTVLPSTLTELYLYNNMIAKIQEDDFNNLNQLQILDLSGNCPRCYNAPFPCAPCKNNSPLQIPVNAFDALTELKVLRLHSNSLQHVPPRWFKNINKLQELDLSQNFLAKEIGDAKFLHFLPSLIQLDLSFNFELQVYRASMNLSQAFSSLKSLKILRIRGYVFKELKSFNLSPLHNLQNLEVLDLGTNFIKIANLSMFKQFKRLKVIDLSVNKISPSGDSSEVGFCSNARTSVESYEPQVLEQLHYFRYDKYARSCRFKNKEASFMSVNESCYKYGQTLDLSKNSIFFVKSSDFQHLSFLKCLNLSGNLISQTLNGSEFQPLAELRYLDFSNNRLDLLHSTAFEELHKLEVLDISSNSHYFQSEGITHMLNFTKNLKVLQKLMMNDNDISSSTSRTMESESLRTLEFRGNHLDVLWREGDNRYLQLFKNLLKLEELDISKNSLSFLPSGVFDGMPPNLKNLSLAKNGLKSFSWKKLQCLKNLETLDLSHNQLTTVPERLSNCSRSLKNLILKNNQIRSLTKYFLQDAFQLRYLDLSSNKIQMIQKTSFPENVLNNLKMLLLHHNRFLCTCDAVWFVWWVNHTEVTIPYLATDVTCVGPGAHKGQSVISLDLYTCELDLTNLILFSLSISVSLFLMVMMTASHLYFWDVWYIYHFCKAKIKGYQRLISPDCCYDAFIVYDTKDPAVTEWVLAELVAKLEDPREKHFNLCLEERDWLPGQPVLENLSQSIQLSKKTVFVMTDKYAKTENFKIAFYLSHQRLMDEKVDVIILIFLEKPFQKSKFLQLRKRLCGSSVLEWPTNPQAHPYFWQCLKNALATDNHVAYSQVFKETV

One test concerns the target human TLR7 (Homo sapiens (Human), UniProt Q9NYK1). The test is described as follows: Test for evaluating the inhibition of the activation of human TLR7 (SEAP reporter, TLR7/NF-κB/SEAPorter HEK293 cell). It is filed as cell-based. The note with it: R-848 200 nmol/L, SEAP activity, result in words. The procedure:
As human TLR7 expressing cell line, HEK293 cell line was bought from IMGENEX Corporation (TLR7/NF-ηB/SEAPorter™ HEK293 cell), which is human embryonic kidney cell line and stably expresses full-length human TLR7 gene and secreted alkaline phosphatase (SEAP) reporter gene under the transcriptional control of an NE-ηB response element. The TLR7/NF-ηB/SEAPorter™ HEK293 cell was cultivated with DMEM containing 10% fetal bovine serum (FBS) and 10 μg/mL blasticidin S at 37° C. in the presence of 5% CO2. The TLR7/NF-ηB/SEAPorter™ HEK293 cell was seeded into 96-well microtiter plate at 5×10^4 cell/90 μL/well, and the place was cultivated at 37° C. in a CO2 incubator overnight.
Each compound prepared in the Examples was evaluated by Test 1.
As to `COc1nc(C)c2nc(-c3cncc(C#N)c3)n(Cc3ccc(C4CN5CCC4CC5)cc3F)c2n1` (single isomer, unassigned) [Example 403, 5-{9-[4-(1-azabicyclo[2.2.2]oct-3-yl)-2-fluorobenzyl]-2-methoxy-6-methyl-9H-purin-8-yl}pyridine-3-carbonitrile], the “inhibitory effect against TLR7 in the test for evaluating inhibition of the activation of TLR7” value (from here on “inhibitory effect against TLR7”) was “potent inhibitory effect against TLR7”.

On to `CCOc1nc(N)c2nc(-c3cncc(F)c3)n(Cc3ccc(C4CN5CCC4CC5)cc3)c2n1` (stereo not drawn) [Example 46], for which the “inhibitory effect against TLR7” value is reported as “potent inhibitory effect against TLR7”.

As for `CCOc1nc(N)c2nc(-c3cncc(F)c3)n(Cc3ccc(OCCN4CCCC4)cc3)c2n1` [Example 47, 2-Ethoxy-8-(5-fluoropyridin-3-yl)-9-{4-[2-(pyrrolidin-1-yl)ethoxy]benzyl}-9H-purine-6-amine], the “inhibitory effect against TLR7” value was “potent inhibitory effect against TLR7”.

As for `CCOc1nc(N)c2nc(-c3cncc(F)c3)n(Cc3cccc(OCCN4CCCC4)c3)c2n1` [Example 51], the “inhibitory effect against TLR7” value was “potent inhibitory effect against TLR7”.

Take `CCOc1nc(N)c2nc(-c3cncc(F)c3)n(Cc3ccc(O[C@@H]4CN5CCC4CC5)cc3)c2n1` [Example 66, 9-{4-[(3S)-1-Azabicyclo[2.2.2]oct-3-yloxy]benzyl}-2-ethoxy-8-(5-fluoropyridin-3-yl)-9H-purine-6-amine]: the “inhibitory effect against TLR7” value is listed as “potent inhibitory effect against TLR7”.

In the case of `CCOc1nc(N)c2nc(-c3cncc(F)c3)n(Cc3ccc(O[C@H]4CN5CCC4CC5)cc3)c2n1` [Example 67], the “inhibitory effect against TLR7” value is “potent inhibitory effect against TLR7”.

The same test, now with this note: R-848 200 nmol/L, SEAP reporter.
`COc1nc(C)c2nc(-c3cncc(F)c3)n(Cc3ccc(C4CN5CCC4CC5)cc3F)c2n1` (single isomer, unassigned) [Example 392, 9-[4-(1-azabicyclo[2.2.2]oct-3-yl)-2-fluorobenzyl]-8-(5-fluoropyridin-3-yl)-2-methoxy-6-methyl-9H-purine] came in with an IC50 of 0.013 µM.

With `COc1nc(C)c2nc(-c3cncc(F)c3)n(Cc3ccc(C4CN5CCC4CC5)cc3F)c2n1` (single isomer, unassigned) [Example 393, 9-[4-(1-azabicyclo[2.2.2]oct-3-yl)-2-fluorobenzyl]-8-(5-fluoropyridin-3-yl)-2-methoxy-6-methyl-9H-purine], 0.001 µM corresponded to half-maximal inhibition (IC50).

For `COc1nc(C)c2nc(-c3cncc(C#N)c3)n(Cc3ccc(C4CN5CCC4CC5)cc3F)c2n1` (single isomer, unassigned) [Example 402, 5-{9-[4-(1-azabicyclo[2.2.2]oct-3-yl)-2-fluorobenzyl]-2-methoxy-6-methyl-9H-purin-8-yl}pyridine-3-carbonitrile], the midpoint of inhibition, the IC50, lay at 0.132 µM.

`COc1nc(C)c2nc(-c3cncc(C#N)c3)n(Cc3ccc(C4CN5CCC4CC5)cc3F)c2n1` (single isomer, unassigned) [Example 403, 5-{9-[4-(1-azabicyclo[2.2.2]oct-3-yl)-2-fluorobenzyl]-2-methoxy-6-methyl-9H-purin-8-yl}pyridine-3-carbonitrile] came in with a half-maximal inhibitory concentration (IC50) of 0.021 µM. Against the preceding molecule, the IC50 is about 6.3-fold lower.

`CCCCOc1nc(N)c2nc(-c3cncc(F)c3)n(Cc3ccccc3)c2n1` [Example 1, 9-Benzyl-2-butoxy-8-(5-fluoropyridin-3-yl)-9H-purine-6-amine] displayed an IC50 of 2.3 µM.

`CCCCOc1nc(N)c2nc(-c3cccnc3)n(Cc3ccccc3)c2n1` [Example 2] returned an IC50 of 5.5 µM.

`CCCCOc1nc(N)c2nc(-c3cccnc3)n(Cc3cccnc3)c2n1` [Example 3] registered an IC50 of 9.2 µM.

For the molecule `CCCCOc1nc(N)c2nc(-c3ccncc3)n(Cc3ccccc3)c2n1` [Example 4], the IC50 amounted to 7.8 µM.

Molecule `CCCCOc1nc(N)c2nc(-c3cncnc3)n(Cc3ccccc3)c2n1` [Example 5] registered an IC50 of 1.4 µM.

`CCCCOc1nc(N)c2nc(-c3cnc(N)nc3)n(Cc3ccccc3)c2n1` [Example 6] displayed an IC50 of 9.6 µM.

The molecule `CCCCOc1nc(N)c2nc(-c3ccoc3)n(Cc3ccccc3)c2n1` [Example 7] returned a concentration for half-maximal inhibition (IC50) of 7.8 µM.

Regarding `CCCCOc1nc(N)c2nc(-c3cnn(C)c3)n(Cc3ccccc3)c2n1` [Example 8], the IC50 is 9.3 µM.

`CCCCOc1nc(N)c2nc(-c3ccccc3)n(Cc3cccnc3)c2n1` [Example 9] had an IC50 of 12.8 µM.

Molecule `CCCCOc1nc(N)c2nc(-c3cncc(OC)c3)n(Cc3ccccc3)c2n1` [Example 10] had an IC50 of 0.8 µM.

Molecule `CCCCOc1nc(N)c2nc(-c3ccccc3)n(Cc3ccccc3)c2n1` [Example 11] yielded an IC50 of 10.9 µM.

Consider `CCCCOc1nc(N)c2nc(-c3cccc(OC)c3)n(Cc3ccccc3)c2n1` [Example 12], for which the half-maximal inhibitory concentration (IC50) was found to be 9.2 µM.

`CCCCOc1nc(N)c2nc(-c3cccc(Cl)c3)n(Cc3ccccc3)c2n1` [Example 13] displayed an IC50 of 9.3 µM. The IC50 values of the last two molecules are within 1.5-fold of each other.

Consider `CCCCOc1nc(N)c2nc(-c3cncc(Cl)c3)n(Cc3ccccc3)c2n1` [Example 17], for which the IC50 stood at 1.1 µM.

Consider `CCCCOc1nc(N)c2nc(-c3cncc(C)c3)n(Cc3ccccc3)c2n1` [Example 18], for which the IC50 was 2.7 µM.

`CCCCOc1nc(N)c2nc(-c3cncc(COC)c3)n(Cc3ccccc3)c2n1` [Example 19] returned an IC50 of 1.4 µM. This IC50 lies about 1.9-fold lower than the previous one.

Turning to `CCCCOc1nc(N)c2nc(-c3cncc(CO)c3)n(Cc3ccccc3)c2n1` [Example 20], the half-inhibitory concentration (IC50) turned out to be 22.5 µM.

As for `CCOc1nc(N)c2nc(-c3cncc(F)c3)n(Cc3ccccc3)c2n1` [Example 21], inhibition was half-maximal at 0.7 µM (IC50).

Molecule `CCOc1nc(N)c2nc(-c3cncc(F)c3)n(Cc3cccnc3)c2n1` [Example 22] registered a concentration for half-maximal inhibition (IC50) of 2 µM.

Turning to `COCCOc1nc(N)c2nc(-c3cncc(OC)c3)n(Cc3ccccc3)c2n1` [Example 24], the IC50 turned out to be 13.7 µM.

In turn, `COCCOc1nc(N)c2nc(-c3cncc(F)c3)n(Cc3ccccc3)c2n1` [Example 25] displayed an IC50 of 3.5 µM. Against the preceding molecule, the IC50 is about 3.9-fold lower.

`CCCCNc1nc(N)c2nc(-c3cncc(OC)c3)n(Cc3ccccc3)c2n1` [Example 26] showed a 50% inhibitory concentration (IC50) of 18.7 µM.

`CCCCCc1nc(N)c2nc(-c3cncc(OC)c3)n(Cc3ccccc3)c2n1` [Example 27] displayed a half-maximal inhibitory concentration (IC50) of 1.4 µM.

`CCCCOc1nc(N)c2nc(-c3cncc(COC)c3)n(Cc3ccccc3)c2n1` [Example 29] showed an IC50 of 1 µM.

`CCOc1nc(N)c2nc(-c3cncc(C(F)F)c3)n(Cc3ccccc3)c2n1` [Example 30] displayed an IC50 of 2.8 µM.

`COCCOc1nc(N)c2nc(-c3cncc(C#N)c3)n(Cc3ccc(CN(C)C)cc3)c2n1` [Example 31] displayed a 50% inhibitory concentration (IC50) of 7.7 µM. This IC50 is about 2.8-fold higher than that of the molecule before.

Molecule `COCCOc1nc(N)c2nc(-c3cnc4ccccc4c3)n(Cc3ccc(CN(C)C)cc3)c2n1` [Example 32] had an IC50 of 8.6 µM.

On to `CCOc1nc(N)c2nc(-c3cncc(C)c3)n(Cc3ccc(CN(C)C)cc3)c2n1` [Example 33], for which half-maximal inhibition (IC50) was put at 0.82 µM.

Molecule `CCOc1nc(N)c2nc(-c3cncc(COC)c3)n(Cc3ccc(CN(C)C)cc3)c2n1` [Example 34] came in with an IC50 of 1.7 µM.

On to `CCCCOc1nc(N)c2nc(-c3ccccn3)n(Cc3ccccc3)c2n1` [Example 35], for which the IC50 stood at 18.1 µM.

With `CCOc1nc(N)c2nc(-c3cncc(OC)c3)n(Cc3ccc(CN(C)C)cc3)c2n1` [Example 36], the IC50 is 2.9 µM. This IC50 is about 6.2-fold lower than that of the molecule before.

As for `CCOc1nc(N)c2nc(-c3cncc(F)c3)n(Cc3cnn(C)c3)c2n1` [Example 37], the 50% inhibitory concentration (IC50) was determined as 2.7 µM.

`CCOc1nc(N)c2nc(-c3cncc(F)c3)n(Cc3ccc(O[C@@H]4CCN(C)C4)nc3)c2n1` [Example 38] registered an IC50 of 0.52 µM.

Molecule `CCOc1nc(N)c2nc(-c3cncc(F)c3)n(Cc3ccc(O[C@H]4CCN(C)C4)nc3)c2n1` [Example 39] returned a 50% inhibitory concentration (IC50) of 0.82 µM.

In turn, `CCOc1nc(N)c2nc(-c3cncc(F)c3)n(Cc3ccc(O[C@@H]4CN5CCC4CC5)nc3)c2n1` [Example 40] registered an IC50 of 0.12 µM.

Regarding `CCOc1nc(N)c2nc(-c3cncc(F)c3)n(Cc3ccc(O[C@H]4CN5CCC4CC5)nc3)c2n1` [Example 41], 0.14 µM corresponded to half-maximal inhibition (IC50).

`CCOc1nc(N)c2nc(-c3cncc(F)c3)n(Cc3ccc(OCCCN(C)C)nc3)c2n1` [Example 42] came in with an IC50 of 0.55 µM.

On to `CCOc1nc(N)c2nc(-c3cncc(F)c3)n(Cc3cc(OC)ccc3F)c2n1` [Example 43], for which the half-inhibitory concentration (IC50) amounted to 2 µM. This IC50 is about 3.6-fold higher than that of the molecule before.

`CCOc1nc(N)c2nc(-c3cncc(F)c3)n(Cc3ccccc3F)c2n1` [Example 44] displayed a concentration for half-maximal inhibition (IC50) of 0.75 µM. This IC50 lies about 2.7-fold lower than the previous one.

`CCOc1nc(N)c2nc(-c3cncc(F)c3)n(Cc3ccc(-c4cncc(F)c4)cc3)c2n1` [Example 45] yielded an IC50 of 0.95 µM. This IC50 and that of the molecule before are within 1.5-fold of each other.

In the case of `CCOc1nc(N)c2nc(-c3cncc(F)c3)n(Cc3ccc(C4CN5CCC4CC5)cc3)c2n1` (stereo not drawn) [Example 46], it took 0.025 µM to reach half-maximal inhibition (IC50).

`CCOc1nc(N)c2nc(-c3cncc(F)c3)n(Cc3ccc(OCCN4CCCC4)cc3)c2n1` [Example 47, 2-Ethoxy-8-(5-fluoropyridin-3-yl)-9-{4-[2-(pyrrolidin-1-yl)ethoxy]benzyl}-9H-purine-6-amine] displayed an IC50 of 0.03 µM.

Turning to `CCOc1nc(N)c2nc(-c3cncc(F)c3)n(Cc3cccc(OCCN4CCCC4)c3)c2n1` [Example 51], the half-maximal inhibitory concentration (IC50) worked out at 0.059 µM.

In turn, `CCOc1nc(N)c2nc(-c3cncc(F)c3)n(Cc3ccc(OCCN(C)C)cn3)c2n1` [Example 56] had an IC50 of 0.66 µM.

`CCOc1nc(N)c2nc(-c3cncc(F)c3)n(Cc3ccc(OC4CCN(C)CC4)nc3)c2n1` [Example 60] yielded an IC50 of 0.23 µM.

In turn, `CCOc1nc(N)c2nc(-c3cncc(F)c3)n(Cc3ccc(N(C)CCN(C)C)nc3)c2n1` [Example 64, N-(5-{[6-Amino-2-ethoxy-8-(5-fluoropyridin-3-yl)-9H-purin-9-yl]methyl}pyridin-2-yl)-N,N′,N′-trimethylethane-1,2-diamine] displayed an IC50 of 0.68 µM.

For `CCOc1nc(N)c2nc(-c3cncc(F)c3)n(Cc3ccc(N4CCN(C)CC4)nc3)c2n1` [Example 65], the IC50 worked out at 0.55 µM.

Consider `CCOc1nc(N)c2nc(-c3cncc(F)c3)n(Cc3ccc(O[C@@H]4CN5CCC4CC5)cc3)c2n1` [Example 66, 9-{4-[(3S)-1-Azabicyclo[2.2.2]oct-3-yloxy]benzyl}-2-ethoxy-8-(5-fluoropyridin-3-yl)-9H-purine-6-amine], for which the IC50 came to 0.021 µM.

`CCOc1nc(N)c2nc(-c3cncc(F)c3)n(Cc3ccc(O[C@H]4CN5CCC4CC5)cc3)c2n1` [Example 67] came in with an IC50 of 0.051 µM.

Regarding `CCOc1nc(N)c2nc(-c3cncc(F)c3)n(Cc3ccc(N4CCN(C)CC4)cc3)c2n1` [Example 68, 2-Ethoxy-8-(5-fluoropyridin-3-yl)-9-[4-(4-methylpiperazin-1-yl)benzyl]-9H-purine-6-amine], half-maximal inhibition (IC50) required 0.18 µM.

The IC50 is the concentration that inhibits the measured activity by half. Low values mean greater potency, high ones weaker potency.
